According to US11713318B2, “Short conjugated oligoelectrolytes and uses thereof” (The Regents Of The University Of California, priority 2018, dated 2023):
Converted amounts (≈) assume the structure as drawn. Where two headings read alike, the source gives them in different places.

Assays:
E. coli K12 (ATCC 47076) = assay: MIC broth microdilution method, Table 3; settings: Escherichia coli, ATCC47076
[1] = test system: K. pneumoniae CDC0010 (MDR); assay: MIC against resistant strains, Tables 5a-5d; assay type: cell-based; settings: Klebsiella pneumoniae, n = 3
Method: (§1) Compounds described herein were evaluated for growth inhibition against a variety of bacterial species, including strains that have developed resistance to common antibacterial treatments, according to the procedure described herein, or by analogous procedures known to those skilled in the art. Resistant bacterial strains used for compound testing include methicillin-resistant S. aureus (MRSA), vancomycin resistant Enterococci (VRE) and various multi-drug resistant (MDR) strains commonly associated with hospital-acquired (nosocomial) infections, including, but not limited to A. baumannii, K. pnuemoniae, and E. cloacae.

E. faecium 1674620 (VRE) = assay: MIC against resistant strains, Tables 5a-5d; assay type: cell-based; settings: Enterococcus faecium, n = 3
Method: as §1

E. coli ATCC25922 (WT) = assay: MIC against resistant strains, Tables 5a-5d; assay type: cell-based; settings: Escherichia coli, n = 3
Method: as §1

[2] = test system: P. aeruginosa 1674623 (MDR); assay: MIC against resistant strains, Tables 5a-5d; assay type: cell-based; settings: Pseudomonas aeruginosa, n = 3
Method: as §1

[3] = test system: K. pneumoniae ATCC BAA-2473 (MDR); assay: MIC against resistant strains, Tables 5a-5d; assay type: cell-based; settings: Klebsiella pneumoniae, ATCCBAA2473, n = 3
Method: as §1

[4] = test system: A. baumannii CDC0290 (MDR); assay: MIC against resistant strains, Tables 5a-5d; assay type: cell-based; settings: Acinetobacter baumannii, n = 3
Method: as §1

[5] = test system: E. cloacae 1744299 (ESBL); assay: MIC against resistant strains, Tables 5a-5d; assay type: cell-based; settings: Enterobacter cloacae, n = 3
Method: as §1

[6] = test system: A. baumannii 1674627 (MDR); assay: MIC against resistant strains, Tables 5a-5d; assay type: cell-based; settings: Acinetobacter baumannii, n = 3
Method: as §1

[7] = test system: S. aureus ATCC 33591 (MRSA); assay: MIC against resistant strains, Tables 5a-5d; assay type: cell-based; settings: Staphylococcus aureus, n = 3
Method: as §1

[8] = test system: P. aeruginosa CDC0248 (MDR); assay: MIC against resistant strains, Tables 5a-5d; assay type: cell-based; settings: Pseudomonas aeruginosa, n = 3
Method: as §1

[9] = test system: S. aureus ATCC BAA-1717 (MRSA); assay: MIC against resistant strains, Tables 5a-5d; assay type: cell-based; settings: Staphylococcus aureus, n = 3
Method: as §1

[10] = test system: Hep G2 (ATCC HB-8065) cells; assay: Cytotoxicity, MTT assay; assay type: cell-based; settings: Hep G2, MTT, 24 hours incubation
Method: (§2) Before removing the frozen cell stocks from liquid nitrogen, culture medium was pre-warmed to 37° C. The frozen tube was then removed from liquid nitrogen and placed into a 37° C. water bath and shaken gently to thaw the cell stock as quickly as possible. A small portion of the pre-warmed culture medium was added to the cell solution. The cell suspension was then centrifuged at 1000 r/min for 3 minutes. The supernatant was discarded and the cells were resuspended in fresh culture medium.
(§3) NIH 3T3 (ATCC CRL-1658) and Hep G2 (ATCC HB-8065) cells were cultured with DMEM+10% FBS in 100 mm dishes. Cells were lifted for subculture or testing when confluence reached ˜60% by treating with 1× trypsin (incubated for 3 min at 37° C.). J774 (ATCC TIB-67) cells were cultured with DMEM+10% FBS in 100 mm dishes. Cells were lifted for subculture or testing when confluence reached ˜80% using a cell scraper. RAW264.7 (ATCC TIB-71) cells were cultured with DMEM+10% heat-inactivated FBS+1% pen/strep in T75 flasks. Cells were lifted for subculture or testing when confluence reached ˜80% using a cell scraper.
(§4) • 1. Cells were lifted and resuspended in culture medium. The number of cells in the cell suspension was determined using an auto-cell counter: 10 μL of the cell suspension was mixed with 10 μL 1× trypan blue (filtered with 0.2 μm PES filter) and the mixture was loaded onto a cell counting slide. Based on the concentration of viable cells, the cell suspension was further diluted to achieve the desired density. • 2. Cells were seeded in 96 well plates by adding 100 μL final cell suspension column-by-column using a multichannel pipette (5000 cells/well for NIH 3T3, 10000 cells/well for Hep G2, J774 and RAW264.7). The outer wells were block with PBS to reduce the effects of evaporation. One column was filled with only culture medium as a blank. Cells were incubated overnight before adding the test articles. • 3. Test articles were dissolved in 1×PBS (or DMSO) to obtain stocks solution. Stock solutions were pre-warmed before use. […] Serial dilutions (2-fold) of the 10× solutions were made in sterile culture tubes by diluting in 1×PBS (8 dilutions to yield 9 test concentrations). 900 μL of culture media was added to each tube to obtain final drug solution containing 10% PBS (or less than 1% DMSO) for each experimental group. • 4. The original culture medium was gently removed from the 96-well plates using a pipette. 100 μL of the test article solutions prepared in Step 3 were added to rows 2-7 of each column to obtain six replicates for each concentration. Plates were then incubated for 24 hours. • 5. MTT solutions were prepared by dissolving commercial MTT powder in 1×PBS to a concentration of 5 mg/mL. After passing through a 0.22 μm PES filter, the MTT solution was divided into 1 mL portions in sterile centrifuge tubes and stored at −20° C. • 6. MTT stock solutions were removed from the freezer to thaw at room temperature. Before adding MTT solutions, cell cultures were visually inspected and imaged using a microscope (to use as a comparison with MTT results). 10 μL of the 5 mg/mL MTT solution was added to each well and the plate was incubated for 4 hours. • 7. After 4 h incubation, the culture medium/MT solution was removed gently using a pipette. 100 μL of DMSO was added to each well using a multichannel pipette. The 96-well plates were analyzed in a plate reader using the following method: shake for 5 minutes, wait for 30 seconds, and measure absorbance at 570 nm. • 8. Data processing: The average of background Abg was calculated from the blank column. All other data was first treated by subtracting Abg. The average A. and standard deviation Se of each experimental group and the average Ac and standard deviation Sc for control group (with pure culture medium incubation) were then calculated. The cell viability was determined as Ae/Ac×100% and corresponding error as Se/Ae×100%. Significant outliers in any experimental or control group were removed. […]

[11] = test system: K. aerogenes (ATCC 13048); assay: MIC broth microdilution method, Table 3; settings: Klebsiella aerogenes, ATCC13048
J774 (ATCC TIB-67) cells = assay: Cytotoxicity, MTT assay; assay type: cell-based; settings: Mus musculus, MTT, 24 hours incubation, read-out: IC50
Method: as §2, §3, §4

[12] = test system: NIH 3T3 (ATCC CRL-1658) cells; assay: Cytotoxicity, MTT assay; assay type: cell-based; settings: Mus musculus, NIH3T3; NIH 3T3; MTT, 24 hours incubation; read-out: IC50
Method: as §2, §3, §4

Cytotoxicity, MTT assay = assay type: cell-based
Method: as §2, §3, §4

[13] = test system: S. epidermidis (ATCC 14990); assay: MIC broth microdilution method, Table 3; settings: Staphylococcus epidermidis, ATCC14990
HRPTEpiC = assay: Cytotoxicity tested by Eurofins Pharma Discovery Services; assay type: cell-based; settings: data provided by Eurofins, read-out: IC50
Hep G2 cells = assay: as above; assay type: cell-based; settings: Homo sapiens, HepG2; Hep G2; data provided by Eurofins; read-out: IC50
[14] = test system: primary human hepatocytes; assay: as above; assay type: cell-based; settings: Hepatocyte, data provided by Eurofins, read-out: IC50
[15] = Homo sapiens, HepG2, 24 h, read-out: IC50
[16] = human, Hep G2 (ATCC HB-8065) cells, Hep G2, at the concentration given as IC50 bound, read-out: cell viability at the highest or lowest test concentration

SMILES | MIC (E. coli K12 (ATCC 47076)) | MIC [1] | MIC (E. faecium 1674620 (VRE)) | MIC (E. coli ATCC25922 (WT)) | MIC [2] | MIC [3] | MIC [4] | MIC [5] | MIC [6] | MIC [7] | MIC [8] | MIC [9] | IC50 [10, 15] | MIC [11] | IC50 [12] | viability at 24 h (Cytotoxicity, MTT assay; [16]) | MIC [13] | also measured
CC[N+](C)(C)CCCCOc1cc(/C=C/c2ccc(/C=C/c3cc(OCCCC[N+](C)(C)CC)cc(OCCCC[N+](C)(C)CC)c3)cc2)cc(OCCCC[N+](C)(C)CC)c1.[I-].[I-].[I-].[I-] [Formula P] | 16 µg/mL | 32 µg/mL | 4 µg/mL | 8 µg/mL | > 64 µg/mL | 16 µg/mL | 64 µg/mL | 8 µg/mL | 64 µg/mL | 1 µg/mL | > 64 µg/mL | 2 µg/mL |  |  |  |  |  | 
CCCC[N+](C)(C)CCOc1cc(/C=C/c2ccc(/C=C/c3cc(OCC[N+](C)(C)CCCC)cc(OCC[N+](C)(C)CCCC)c3)cc2)cc(OCC[N+](C)(C)CCCC)c1.[I-].[I-].[I-].[I-] [Formula G] | 4 µg/mL | 16 µg/mL | 1 µg/mL | 1 µg/mL | 64 µg/mL | 4 µg/mL | 32 µg/mL | 4 µg/mL | 32 µg/mL | 1 µg/mL | 64 µg/mL | 2 µg/mL | 889 µg/mL |  |  |  |  | 
CCCCC[N+](C)(C)CCCCOc1cc(/C=C/c2ccc(/C=C/c3cc(OCCCC[N+](C)(C)CCCCC)cc(OCCCC[N+](C)(C)CCCCC)c3)cc2)cc(OCCCC[N+](C)(C)CCCCC)c1 [Formula S] | 4 µg/mL |  |  |  |  |  |  |  |  |  |  |  | > 128 µg/mL | 8 µg/mL | 42.3 µg/mL | 52% | 2 µg/mL | IC50 (J774 (ATCC TIB-67) cells): 22.6 µg/mL
CO/N=C(\C(=O)N[C@@H]1C(=O)N2C(C(=O)[O-])=C(C[n+]3cccc4c3CCC4)CS[C@H]12)c1csc(N)n1 [Cefpirome, reference compound] | 0.0625 µg/mL (≈ 0.121 µM) |  |  |  |  |  |  |  |  |  |  |  | > 128 µg/mL | 0.25 µg/mL (≈ 0.486 µM) | > 128 µg/mL | 101% | 1 µg/mL (≈ 1.94 µM) | IC50 (J774 (ATCC TIB-67) cells): > 128 µg/mL; viability at 24 h (Cytotoxicity, MTT assay; mouse, J774 (ATCC TIB-67) cells, at the concentration given as IC50 bound, read-out: cell viability at the highest or lowest test concentration): 107%; viability at 24 h (Cytotoxicity, MTT assay; mouse, NIH 3T3 (ATCC CRL-1658) cells, NIH 3T3, at the concentration given as IC50 bound, read-out: cell viability at the highest or lowest test concentration): 81%
CCC[N+](C)(C)CCCCOc1cc(/C=C/c2ccc(/C=C/c3cc(OCCCC[N+](C)(C)CCC)cc(OCCCC[N+](C)(C)CCC)c3)cc2)cc(OCCCC[N+](C)(C)CCC)c1 [Formula Q] | 8 µg/mL | 32 µg/mL | 1 µg/mL | 4 µg/mL | > 64 µg/mL | 8 µg/mL | 64 µg/mL | 4 µg/mL | 64 µg/mL | 1 µg/mL | > 64 µg/mL | 1 µg/mL | > 128 µg/mL |  |  | 91% |  | 
CCCCCC[N+](C)(C)CCCOc1cc(/C=C/c2ccc(/C=C/c3cc(OCCC[N+](C)(C)CCCCCC)cc(OCCC[N+](C)(C)CCCCCC)c3)cc2)cc(OCCC[N+](C)(C)CCCCCC)c1 [Formula BB] | 8 µg/mL | 2 µg/mL | 0.25 µg/mL | 2 µg/mL | 16 µg/mL | 2 µg/mL | 2 µg/mL | 2 µg/mL | 2 µg/mL | 2 µg/mL | 32 µg/mL | 1 µg/mL | 15 µg/mL |  |  |  |  | viability at 24 h (Cytotoxicity, MTT assay; human, Hep G2 (ATCC HB-8065) cells, Hep G2, at concentrations efficacious against bacterial species (0.25-4 μg/mL), read-out: cell viability): ~90%; IC50 [10]: 15.1 µg/mL
C[N+](C)(C)CCCCCCOc1cc(/C=C/c2ccc(/C=C/c3ccc(/C=C/c4cc(OCCCCCC[N+](C)(C)C)cc(OCCCCCC[N+](C)(C)C)c4)cc3)cc2)cc(OCCCCCC[N+](C)(C)C)c1 [Formula TT] | > 256 µg/mL |  |  |  |  |  |  |  |  |  |  |  | > 128 µg/mL | > 128 µg/mL | 69.3 µg/mL | 70% | 4 µg/mL | IC50 (HRPTEpiC): 6.3 µg/mL; IC50 (Hep G2 cells): 94.6 µg/mL; IC50 [14]: 102 µg/mL
